Test results reported in article PMC5218480 (PLoS ONE, 2017).

System: MV-4-11 cells
Assay: Gene expression microarray analysis (Affymetrix PrimeView) and GSEA
Format: cell-based, human
Design: RFU PODN (11730768_x_at) / Fold change /veh PODN (11730768_x_at) / RFU LINC00158 (11744669_a_at) / Fold change /veh LINC00158 (11744669_a_at) / RFU DUSP10 (11751237_a_at) / Fold change /veh DUSP10 (11751237_a_at) / RFU ID3 (11757404_x_at) / Fold change /veh ID3 (11757404_x_at) / RFU PLEKHG5 (11737974_s_at) / Fold change /veh PLEKHG5 (11737974_s_at) / RFU LRRC4B (11730491_at) / Fold change /veh LRRC4B (11730491_at) / RFU GIMAP4 (11747438_a_at) / Fold change /veh GIMAP4 (11747438_a_at) / RFU KRT8 (11758183_x_at) / Fold change /veh KRT8 (11758183_x_at) / RFU CNN1 (11734310_a_at) / Fold change /veh CNN1 (11734310_a_at) / RFU VPS37D (11726825_at) / Fold change /veh VPS37D (11726825_at) / RFU C10orf10 (11716522_x_at) / Fold change /veh C10orf10 (11716522_x_at) / RFU KIR2DL2 /// KIR2DL4 /// KIR2DL5A /// KIR2DL5B /// KIR2DS1 /// KIR2DS2 /// KIR2DS3 /// KIR2DS4 /// KIR3DL3 /// KIR3DL3 /// KIR3DS1 (11738374_at) / Fold change /veh KIR2DL2 /// KIR2DL4 /// KIR2DL5A /// KIR2DL5B /// KIR2DS1 /// KIR2DS2 /// KIR2DS3 /// KIR2DS4 /// KIR3DL3 /// KIR3DL3 /// KIR3DS1 (11738374_at) / RFU C1QL1 (11718748_at) / Fold change /veh C1QL1 (11718748_at) / RFU TMPRSS4 (11747572_a_at) / Fold change /veh TMPRSS4 (11747572_a_at) / RFU HAMP (11756126_x_at) / Fold change /veh HAMP (11756126_x_at) / RFU RNFT2 (11725882_a_at) / Fold change /veh RNFT2 (11725882_a_at) / RFU NR4A2 (11747474_a_at) / Fold change /veh NR4A2 (11747474_a_at) / RFU ABCC12 (11746883_a_at) / Fold change /veh ABCC12 (11746883_a_at) / RFU TMEM136 (11760407_x_at) / Fold change /veh TMEM136 (11760407_x_at) / RFU CLDN22 /// WWC2 (11732394_at) / Fold change /veh CLDN22 /// WWC2 (11732394_at) / RFU HLA-DPB1 (11760878_x_at) / Fold change /veh HLA-DPB1 (11760878_x_at) / RFU SPINT1 (11716480_a_at) / Fold change /veh SPINT1 (11716480_a_at) / RFU GAP43 (11754022_s_at) / Fold change /veh GAP43 (11754022_s_at) / RFU A4GNT (11735810_at) / Fold change /veh A4GNT (11735810_at) / RFU PRB3 (11715151_x_at) / Fold change /veh PRB3 (11715151_x_at) / RFU TUBB4B (11761932_at) / Fold change /veh TUBB4B (11761932_at) / RFU CAPN14 (11732068_a_at) / Fold change /veh CAPN14 (11732068_a_at) / RFU TMCC2 (11721928_a_at) / Fold change /veh TMCC2 (11721928_a_at) / RFU IRGQ (11745062_a_at) / Fold change /veh IRGQ (11745062_a_at) / RFU FAM174B (11720279_a_at) / Fold change /veh FAM174B (11720279_a_at) / RFU TMPRSS4 (11748680_a_at) / Fold change /veh TMPRSS4 (11748680_a_at) / RFU FAM212B (11763350_a_at) / Fold change /veh FAM212B (11763350_a_at) / RFU PLEKHG5 (11743358_a_at) / Fold change /veh PLEKHG5 (11743358_a_at) / RFU ZSCAN30 (11745921_a_at) / Fold change /veh ZSCAN30 (11745921_a_at) / RFU CMKLR1 (11741424_a_at) / Fold change /veh CMKLR1 (11741424_a_at) / RFU LOC101060620 /// MAPK8IP1 (11723275_at) / Fold change /veh LOC101060620 /// MAPK8IP1 (11723275_at) / RFU SPTSSB (11747773_x_at) / Fold change /veh SPTSSB (11747773_x_at) / RFU PRSS12 (11739890_at) / Fold change /veh PRSS12 (11739890_at) / RFU BIN1 (11741810_x_at) / Fold change /veh BIN1 (11741810_x_at) / RFU WNT11 (11732464_a_at) / Fold change /veh WNT11 (11732464_a_at) / RFU C10orf10 (11716521_a_at) / Fold change /veh C10orf10 (11716521_a_at) / RFU C5orf56 (11738089_at) / Fold change /veh C5orf56 (11738089_at) / RFU CYB561 (11721691_x_at) / Fold change /veh CYB561 (11721691_x_at) / RFU ANKRD19P (11752326_a_at) / Fold change /veh ANKRD19P (11752326_a_at) / RFU OR2T12 /// OR2T33 /// OR2T8 (11738714_s_at) / Fold change /veh OR2T12 /// OR2T33 /// OR2T8 (11738714_s_at) / RFU VCAN (11748164_a_at) / Fold change /veh VCAN (11748164_a_at) / RFU JSRP1 (11732532_at) / Fold change /veh JSRP1 (11732532_at) / RFU KRTAP10-11 (11738290_x_at) / Fold change /veh KRTAP10-11 (11738290_x_at) / RFU MYO3A (11730013_a_at) / Fold change /veh MYO3A (11730013_a_at) / RFU EBF3 (11725865_a_at) / Fold change /veh EBF3 (11725865_a_at) / RFU CAMK2N1 (11719241_x_at) / Fold change /veh CAMK2N1 (11719241_x_at) / RFU C5orf56 (11738088_a_at) / Fold change /veh C5orf56 (11738088_a_at) / RFU OLFML3 (11715873_a_at) / Fold change /veh OLFML3 (11715873_a_at) / RFU LOC100653217 /// NTM (11731650_a_at) / Fold change /veh LOC100653217 /// NTM (11731650_a_at) / RFU MAPK11 (11762145_a_at) / Fold change /veh MAPK11 (11762145_a_at) / RFU FIZ1 (11724087_x_at) / Fold change /veh FIZ1 (11724087_x_at) / RFU OASL (11726364_x_at) / Fold change /veh OASL (11726364_x_at) / RFU SOX15 (11748057_x_at) / Fold change /veh SOX15 (11748057_x_at) / RFU CD79A (11719716_a_at) / Fold change /veh CD79A (11719716_a_at) / RFU HIST1H1D (11736915_at) / Fold change /veh HIST1H1D (11736915_at) / RFU CASKIN2 (11723855_a_at) / Fold change /veh CASKIN2 (11723855_a_at) / RFU LOC730098 (11760151_x_at) / Fold change /veh LOC730098 (11760151_x_at) / RFU OR4N2 (11742367_at) / Fold change /veh OR4N2 (11742367_at) / RFU PRRT2 (11749266_a_at) / Fold change /veh PRRT2 (11749266_a_at) / RFU SNX32 (11753110_a_at) / Fold change /veh SNX32 (11753110_a_at) / RFU CDHR5 (11726645_a_at) / Fold change /veh CDHR5 (11726645_a_at) / RFU RCAN1 (11760418_a_at) / Fold change /veh RCAN1 (11760418_a_at) / RFU FAM167A (11723789_a_at) / Fold change /veh FAM167A (11723789_a_at) / RFU FAM26E (11764081_at) / Fold change /veh FAM26E (11764081_at) / RFU ISYNA1 (11749810_s_at) / Fold change /veh ISYNA1 (11749810_s_at) / RFU ACY1 (11761880_at) / Fold change /veh ACY1 (11761880_at) / RFU 11764098_at / Fold change /veh 11764098_at / RFU SAMD14 (11745864_x_at) / Fold change /veh SAMD14 (11745864_x_at) / RFU NPB (11741838_a_at) / Fold change /veh NPB (11741838_a_at) / RFU TMPRSS6 (11731388_a_at) / Fold change /veh TMPRSS6 (11731388_a_at) / RFU KRTAP10-2 (11738614_at) / Fold change /veh KRTAP10-2 (11738614_at) / RFU ARHGAP8 /// PRR5-ARHGAP8 (11727945_x_at) / Fold change /veh ARHGAP8 /// PRR5-ARHGAP8 (11727945_x_at) / RFU KRTAP5-7 /// NADSYN1 (11734609_at) / Fold change /veh KRTAP5-7 /// NADSYN1 (11734609_at) / RFU RASL12 (11751679_a_at) / Fold change /veh RASL12 (11751679_a_at) / RFU CDKN2B (11736163_a_at) / Fold change /veh CDKN2B (11736163_a_at) / RFU PRF1 (11729649_at) / Fold change /veh PRF1 (11729649_at) / RFU, ZNF638 /// ZNF638-IT1 / Fold change vs veh, ZNF638 /// ZNF638-IT1 / RFU, PANK3 / Fold change vs veh, PANK3 / RFU, SH3YL1 / Fold change vs veh, SH3YL1 / RFU, ZEB2 / Fold change vs veh, ZEB2 / RFU, NRIP1 / Fold change vs veh, NRIP1 / RFU, PTTG1IP / Fold change vs veh, PTTG1IP / RFU, CAPN2 / Fold change vs veh, CAPN2 / RFU, MED14 / Fold change vs veh, MED14 / RFU, SNORA58 / Fold change vs veh, SNORA58 / RFU, C1orf63 / Fold change vs veh, C1orf63 / RFU, LRRFIP1 / Fold change vs veh, LRRFIP1 / RFU, NDUFAF7 / Fold change vs veh, NDUFAF7 / RFU, SLC12A2 / Fold change vs veh, SLC12A2 / RFU, IBTK / Fold change vs veh, IBTK / RFU, ESF1 / Fold change vs veh, ESF1 / Fold change vs veh, TMEM50B / RFU, TAOK1 / Fold change vs veh, TAOK1 / RFU, ACBD3 / Fold change vs veh, ACBD3 / RFU, TMA16 / Fold change vs veh, TMA16 / RFU, RWDD3 / Fold change vs veh, RWDD3 / RFU, BCAT1 / Fold change vs veh, BCAT1 / RFU, EDEM3 / Fold change vs veh, EDEM3 / RFU, TMEM33 / Fold change vs veh, TMEM33 / RFU, WDR75 / Fold change vs veh, WDR75 / RFU, AHCTF1 / Fold change vs veh, AHCTF1 / RFU, TFRC / Fold change vs veh, TFRC / RFU, ZDHHC17 / Fold change vs veh, ZDHHC17 / RFU, NOM1 / Fold change vs veh, NOM1 / RFU, ARL8B / Fold change vs veh, ARL8B / RFU, ZBTB11 / Fold change vs veh, ZBTB11 / RFU, TAMM41 / Fold change vs veh, TAMM41 / RFU, KIAA1704 /// LOC100996395 / Fold change vs veh, KIAA1704 /// LOC100996395 / RFU, ING1 / Fold change vs veh, ING1 / RFU, TRMT61B / Fold change vs veh, TRMT61B / RFU, FUBP3 / Fold change vs veh, FUBP3 / RFU, TP53 / Fold change vs veh, TP53 / RFU, TNKS2 / Fold change vs veh, TNKS2 / RFU, ZFP14 / Fold change vs veh, ZFP14 / RFU, ACTR2 / Fold change vs veh, ACTR2 / RFU, PPP3R1 / Fold change vs veh, PPP3R1 / RFU, PIK3R1 / Fold change vs veh, PIK3R1 / RFU, HNRNPA1 / Fold change vs veh, HNRNPA1 / RFU, RNF170 / Fold change vs veh, RNF170 / RFU, ZNF28 / Fold change vs veh, ZNF28 / RFU, RNGTT / Fold change vs veh, RNGTT / RFU, OGT / Fold change vs veh, OGT / RFU, BRD1 / Fold change vs veh, BRD1 / RFU, MARS / Fold change vs veh, MARS / RFU, ZNF655 / Fold change vs veh, ZNF655 / RFU, FAHD1 / Fold change vs veh, FAHD1 / RFU, BDP1 / Fold change vs veh, BDP1 / RFU, LRRCC1 / Fold change vs veh, LRRCC1 / RFU, ARID1A / Fold change vs veh, ARID1A / RFU, ZNF146 / Fold change vs veh, ZNF146 / RFU, ZNF330 / Fold change vs veh, ZNF330 / RFU, GPN3 / Fold change vs veh, GPN3 / RFU, C9orf123 / Fold change vs veh, C9orf123 / RFU, N4BP2L2 / Fold change vs veh, N4BP2L2 / RFU, ARFIP1 / Fold change vs veh, ARFIP1 / RFU, FAM179B / Fold change vs veh, FAM179B / RFU, BCL10 / Fold change vs veh, BCL10 / RFU, UHRF1BP1L / Fold change vs veh, UHRF1BP1L / RFU, BET1 / Fold change vs veh, BET1 / RFU, CNOT2 / Fold change vs veh, CNOT2 / RFU, ZNF268 / Fold change vs veh, ZNF268 / Fold change vs veh, ZNF507 / RFU, DGCR2 / Fold change vs veh, DGCR2 / RFU, WDSUB1 / Fold change vs veh, WDSUB1 / Fold change vs veh, HSP90B1 /// MIR3652 / RFU, ADSS / Fold change vs veh, ADSS / RFU, GK / Fold change vs veh, GK / RFU, ZNF148 / Fold change vs veh, ZNF148 / RFU, TAF9 / Fold change vs veh, TAF9 / RFU, SLC1A5 / Fold change vs veh, SLC1A5 / RFU, SLMO2 / Fold change vs veh, SLMO2 / RFU, ABCC4 / Fold change vs veh, ABCC4 / RFU, LOC101060439 /// RAP1B / Fold change vs veh, LOC101060439 /// RAP1B / RFU, RFX7 / Fold change vs veh, RFX7 / RFU, GTPBP10 / Fold change vs veh, GTPBP10 / RFU, CNEP1R1 / Fold change vs veh, CNEP1R1 / RFU, BIVM-ERCC5 /// ERCC5 / Fold change vs veh, BIVM-ERCC5 /// ERCC5 / RFU, ILF3 / Fold change vs veh, ILF3 / RFU 11762660_at / Fold change /veh 11762660_at / RFU VCAN (11757783_s_at) / Fold change /veh VCAN (11757783_s_at) / RFU DDX43 (11728927_at) / Fold change /veh DDX43 (11728927_at) / RFU KRT8 (11758188_x_at) / Fold change /veh KRT8 (11758188_x_at) / RFU NKD1 (11759106_at) / Fold change /veh NKD1 (11759106_at) / RFU SRD5A1 (11742802_a_at) / Fold change /veh SRD5A1 (11742802_a_at) / RFU TPSAB1 /// TPSB2 (11721975_s_at) / Fold change /veh TPSAB1 /// TPSB2 (11721975_s_at) / RFU GSTM3 (11746129_a_at) / Fold change /veh GSTM3 (11746129_a_at) / RFU IL23R (11737362_x_at) / Fold change /veh IL23R (11737362_x_at) / RFU TMEM51 (11727254_a_at) / Fold change /veh TMEM51 (11727254_a_at) / RFU PIWIL2 (11732686_x_at) / Fold change /veh PIWIL2 (11732686_x_at) / RFU ORM1 (11744905_x_at) / Fold change /veh ORM1 (11744905_x_at) / RFU CCDC152 (11743942_at) / Fold change /veh CCDC152 (11743942_at) / RFU ECM1 (11717891_a_at) / Fold change /veh ECM1 (11717891_a_at) / RFU IL23R (11748794_a_at) / Fold change /veh IL23R (11748794_a_at) / RFU TNFAIP8L3 (11732012_x_at) / Fold change /veh TNFAIP8L3 (11732012_x_at) / RFU MBOAT4 (11741988_at) / Fold change /veh MBOAT4 (11741988_at) / RFU 11764193_at / Fold change /veh 11764193_at / RFU TMEM53 (11763286_at) / Fold change /veh TMEM53 (11763286_at) / RFU MAGEB2 (11727129_at) / Fold change /veh MAGEB2 (11727129_at) / RFU TMEM200A (11744735_a_at) / Fold change /veh TMEM200A (11744735_a_at) / RFU CCDC152 (11751479_a_at) / Fold change /veh CCDC152 (11751479_a_at) / RFU FAM211A (11726209_a_at) / Fold change /veh FAM211A (11726209_a_at) / RFU RGS16 (11746705_a_at) / Fold change /veh RGS16 (11746705_a_at) / RFU VCAN (11755009_s_at) / Fold change /veh VCAN (11755009_s_at) / RFU RHOB (11743442_s_at) / Fold change /veh RHOB (11743442_s_at) / RFU RGS16 (11720943_a_at) / Fold change /veh RGS16 (11720943_a_at) / RFU RGS16 (11720944_at) / Fold change /veh RGS16 (11720944_at) / RFU, VPS4B / Fold change vs veh, VPS4B / RFU, CREB1 / Fold change vs veh, CREB1 / RFU, DNAJC13 / Fold change vs veh, DNAJC13 / RFU, GNAQ / Fold change vs veh, GNAQ / RFU, CDK5R1 / Fold change vs veh, CDK5R1 / RFU, ZRANB3 / Fold change vs veh, ZRANB3 / RFU, CUL4A / Fold change vs veh, CUL4A / RFU, CCNY / Fold change vs veh, CCNY / RFU, UFL1 / Fold change vs veh, UFL1 / RFU, COG3 / Fold change vs veh, COG3 / RFU, DIAPH2 / Fold change vs veh, DIAPH2 / RFU, SKA2 / Fold change vs veh, SKA2 / RFU, AFF3 / Fold change vs veh, AFF3 / RFU, LMF1 / Fold change vs veh, LMF1 / RFU, IPO11 / Fold change vs veh, IPO11 / RFU, DFFB / Fold change vs veh, DFFB / RFU, FOXP1 / Fold change vs veh, FOXP1 / RFU, CARD8 / Fold change vs veh, CARD8 / RFU, STRN3 / Fold change vs veh, STRN3 / RFU, ADK / Fold change vs veh, ADK / RFU, RASSF2 / Fold change vs veh, RASSF2 / RFU, WIPF1 / Fold change vs veh, WIPF1 / RFU, LARP1B / Fold change vs veh, LARP1B / RFU, RASA1 / Fold change vs veh, RASA1 / RFU, RB1 / Fold change vs veh, RB1 / RFU, PPFIA1 / Fold change vs veh, PPFIA1 / RFU, MAT2A / Fold change vs veh, MAT2A / RFU, CCT5 / Fold change vs veh, CCT5 / RFU, WDR92 / Fold change vs veh, WDR92 / RFU, CUX1 / Fold change vs veh, CUX1 / RFU, TTC7A / Fold change vs veh, TTC7A / RFU, TMEM135 / Fold change vs veh, TMEM135 / RFU, DEPTOR / Fold change vs veh, DEPTOR / RFU, CPM / Fold change vs veh, CPM / RFU, DNAJB6 / Fold change vs veh, DNAJB6 / RFU, CACNA2D3 / Fold change vs veh, CACNA2D3 / RFU, DTX4 / Fold change vs veh, DTX4 / RFU, TFCP2 / Fold change vs veh, TFCP2 / RFU, GMCL1 /// GMCL1P1 / Fold change vs veh, GMCL1 /// GMCL1P1 / RFU, AEBP2 / Fold change vs veh, AEBP2 / RFU, SNHG1 /// SNORD22 /// SNORD25 /// SNORD26 /// SNORD27 /// SNORD28 /// SNORD29 /// SNORD31 / Fold change vs veh, SNHG1 /// SNORD22 /// SNORD25 /// SNORD26 /// SNORD27 /// SNORD28 /// SNORD29 /// SNORD31 / Fold change (Aza/veh), C12orf56 (ProbeSet 11735607_a_at) / Fold change (ACY-1035/veh), C12orf56 (ProbeSet 11735607_a_at) / Fold change (Aza/veh), FGFR1OP (ProbeSet 11751329_s_at) / Fold change (ACY-1035/veh), FGFR1OP (ProbeSet 11751329_s_at) / Fold change (Aza/veh), VPS36 (ProbeSet 11739960_a_at) / Fold change (ACY-1035/veh), VPS36 (ProbeSet 11739960_a_at) / RFU SYPL1 (11715823_x_at) / Fold change /veh SYPL1 (11715823_x_at) / RFU IGFBP7 (11715501_s_at) / Fold change /veh IGFBP7 (11715501_s_at) / RFU REEP3 (11722064_at) / Fold change /veh REEP3 (11722064_at) / RFU IGLL1 (11728026_x_at) / Fold change /veh IGLL1 (11728026_x_at): dose or concentration left out as unconfirmed
Settings: ProbeSet 11739263_x_at; LIST D

Nc1ccc(-c2cccs2)cc1NC(=O)c1ccc2c(c1)cc(C1CC1)n2CCN1CCOCC1 [ACY-1035]
Fold change vs veh, VPS4B: 0.95
